# Like-named read-outs stand apart in the source and are kept apart here.
# How the values were obtained:
# [1] = target: T1, human D2R/β-arrestin (Homo sapiens (Human), UniProt P14416); assay: Gi/cAMP agonist assay (Lance Ultra cAMP, forskolin); assay type: cell-based; details: CHO-K1 cells expressing human D2R/β-arrestin; agonist mode, 2.5 μM forskolin
# Procedure: Eu-cAMP tracer solution (10 μl, PerkinElmer, 360 μl of Tracer in 17.64 ml kit buffer) and ULight-anti-cAMP solution (10 μl, 120 μL antibody in 17.88 ml kit buffer) was then added to each well.
# [2] = Pharmacokinetic and brain distribution study in mice; assay type: in vivo; details: single intraperitoneal dose 30 mg/kg, male C57BL/6 mice
# Procedure: Pharmacokinetic Studies on Mice Brains
# Twelve male C57BL/6 mice were weighed and administered intraperitoneally with a dose of test compound (Examples 90, 157, 125) solution formulation. The dosing volume administered for the intraperitoneal route was at 10 mL/kg. Blood samples (approximately […]) were collected from retro-orbital plexus of each mouse under light isoflurane anesthesia at 0.08, 0.5, 1, 2, 4, and 8 hr. Following the collection of blood, plasma was also harvested by centrifugation and stored at −70° C. until analysis. After collection of plasma, the animals were euthanized and brain samples were isolated at 0.08, 0.5, 1, 2, 4, and 8 hr. Tissue samples (brain) were homogenized using ice-cold phosphate buffer saline (pH 7.4) and homogenates were stored below −70° C. until analysis. Total homogenate volume was three times the tissue weight. Concentrations of test compound in mouse plasma and brain samples were determined by LC-MS/MS method.
# Identical extraction procedures were used for the plasma/brain homogenate study samples and the spiked plasma calibration standards: A 25 μL sample of either study sample (plasma/brain) or spiked calibration standard was added to individual pre-labeled micro-centrifuge tubes. A volume of 100 μL of IS (antipyrine, 500 ng/mL) prepared in acetonitrile was then added to the micro-centrifuge tubes, except in a sample used as a negative control where only acetonitrile was added and vortexed for 5 minutes. Samples were centrifuged for 20 minutes at the speed of 4000 rpm at 4° C. Following centrifugation, 100 μL of the supernatant was sampled from each centrifuge tube and transferred into insert vials. These vials remained within the auto-sampler for the LC/MS/MS analysis. Standards used for calibration were prepared by spiking 10 μL of the test compound in 190 μL of control (used as a negative control) mouse plasma/brain homogenate.
# The plasma and brain concentration-time data of test compounds was provided for data analysis. The plasma and brain concentration-time data was then used for the pharmacokinetic analysis. Non-Compartmental-Analysis module in Phoenix® WinNonlin® (Version 6.3) was used to assess the pharmacokinetic parameters. Peak plasma concentrations (Cmax) and time for the peak plasma concentrations (Tmax) were the observed values. The areas under the concentration time curve (AUClast and AUCinf) were calculated by linear trapezoidal rule. The terminal elimination rate constant, ke was determined by regression analysis of the linear terminal portion of the log plasma concentration-time curve.
# Illustrative results are presented in FIG. 2, the pharmacokinetic parameters are as follow: […]
# [3] = target: T1, human D2R/β-arrestin; assay: cell-based; details: β-arrestin Antagonist, CHO-K1 cells expressing human D2R/β-arrestin; antagonist mode, quinpirole 130 nM
# T1 sequence (P14416 whole entry): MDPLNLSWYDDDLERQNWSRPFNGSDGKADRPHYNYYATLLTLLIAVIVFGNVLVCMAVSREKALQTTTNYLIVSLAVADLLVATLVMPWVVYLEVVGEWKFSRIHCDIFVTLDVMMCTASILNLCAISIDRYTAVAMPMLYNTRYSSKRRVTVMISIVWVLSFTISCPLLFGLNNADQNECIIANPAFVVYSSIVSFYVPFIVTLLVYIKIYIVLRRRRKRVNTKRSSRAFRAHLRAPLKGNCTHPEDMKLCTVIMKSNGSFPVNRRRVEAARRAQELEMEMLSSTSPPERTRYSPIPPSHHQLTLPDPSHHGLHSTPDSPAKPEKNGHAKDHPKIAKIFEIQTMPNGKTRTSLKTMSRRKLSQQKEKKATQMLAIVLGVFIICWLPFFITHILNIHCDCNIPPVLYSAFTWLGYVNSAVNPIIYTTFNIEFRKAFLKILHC
structure (smiles),measurement,setting,value
"CC1(Oc2ccc(Cl)cc2)CCN(CCOc2ccccc2C(F)(F)F)CC1 [Compound 90, 4-(4-Chlorophenoxy)-4-methyl-1-(2-(2-(trifluoromethyl)phenoxy)ethyl) piperidine]",EC50,[1],< 100 nM
same,Brain AUC,[2]; brain,34.2 µM·h
same,Brain Cmax,[2]; brain,7230 nM
same,half-life,"[2]; mouse, ip, brain, read-out: Brain T1/2 (converted)",4.2 h
same,AUC,"[2]; mouse, ip, plasma",4.4 µM·h
same,Cmax,"[2]; mouse, ip, plasma",1440 nM
same,half-life,"[2]; mouse, ip, plasma, read-out: Plasma T1/2 (converted)",4.7 h
same,IC50,[3],100 to 1000 nM

# — US11498896B2 (The Broad Institute, Inc., priority 2014, dated 2022)
